Test results taken from patent US20250074911A1, “MACROCYCLIC BTK INHIBITORS” (Crossfire Oncology Holding B.V., priority 2021, published 2025).
pIC50, pKd: −log10 of the molar value. Values joined by “and” are separate entries in the source; they are usually repeats but may differ in a detail not shown here. Equal values may be shown once.

What was measured:
REC-1 T474I cell lines = test: Cell proliferation assay REC-1 BTK T474I knock-in cells (ATPlite, 72 hours); type: cell-based; details: Homo sapiens, Rec1; 72 hours; read-out: IC50 REC-1 T474I
Summary of the method: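 REC-1 cells carrying CRISPR knock-in mutant BTK, single-cell cloned and sequence-confirmed, were exposed to compound for 72 h and read by ATPlite luminescence. Percentage growth was calculated against the signal at the start of incubation and against untreated 0.3% DMSO wells as maximum growth.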

wt-BTK = wt-BTK (Homo sapiens (Human), UniProt Q06187); test: Binding kinetics measurements (Surface Plasmon Resonance) on wt-BTK; details: for pKd: binding affinity by Surface Plasmon Resonance (SPR); for Tau (h) wt-BTK (Act): target residence time, SPR
Chain of wt-BTK (Q06187 whole entry): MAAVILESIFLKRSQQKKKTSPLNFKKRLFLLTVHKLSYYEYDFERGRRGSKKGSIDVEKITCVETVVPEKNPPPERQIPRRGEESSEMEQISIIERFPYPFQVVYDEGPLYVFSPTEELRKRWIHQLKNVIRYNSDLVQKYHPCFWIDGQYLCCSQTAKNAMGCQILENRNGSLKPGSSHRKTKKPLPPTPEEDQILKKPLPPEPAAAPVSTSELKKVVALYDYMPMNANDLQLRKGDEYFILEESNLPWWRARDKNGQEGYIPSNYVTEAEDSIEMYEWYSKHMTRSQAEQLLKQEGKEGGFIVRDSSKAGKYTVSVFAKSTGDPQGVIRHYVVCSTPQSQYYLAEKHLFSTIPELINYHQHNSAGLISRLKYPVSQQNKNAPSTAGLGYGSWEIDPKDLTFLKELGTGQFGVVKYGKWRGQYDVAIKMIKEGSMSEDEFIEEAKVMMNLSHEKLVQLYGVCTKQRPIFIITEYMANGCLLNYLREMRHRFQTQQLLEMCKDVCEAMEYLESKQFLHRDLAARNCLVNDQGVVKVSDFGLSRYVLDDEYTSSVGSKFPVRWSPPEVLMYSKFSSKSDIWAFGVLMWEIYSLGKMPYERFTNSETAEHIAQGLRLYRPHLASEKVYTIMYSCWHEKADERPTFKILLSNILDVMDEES
Summary of the method: (§1)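 Constants come from single-cycle kinetics: five rising compound injections (3.16-316 nM) at 30 μl/min and 22° C over streptavidin-captured BTK (wild type or mutant), running buffer containing 1% DMSO. Double referencing applied; induced-fit binders fitted to a two-state model; duplicates geometrically averaged; residence time derived.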

BTK T474I = BTK T474I (Homo sapiens (Human), UniProt Q06187, T474I); test: Binding kinetics measurements (Surface Plasmon Resonance) on BTK T474I; details: for pKd: binding affinity by Surface Plasmon Resonance (SPR); for Tau (h) BTK T474I (Act): target residence time, SPR
Chain of BTK T474I (Q06187 whole entry T474I): as the sequence (Q06187 whole entry) above, with T474I counted along it
Summary of the method: as §1

[1] = system: wt-TMD8 diffuse large B-cell lymphoma cells; test: Cell proliferation assay wt-TMD8 (ATPlite, 120 hours); type: cell-based; details: B-cell; wt-TMD8 cells, 120 hours, ATPlite; read-out: IC50 wt-TMD8
Summary of the method: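 Readout is percentage growth from ATPlite 1Step luminescence after 5 days (120 h) compound treatment of wt-TMD8 lymphoma cells (1600/well, RPMI-1640 + 10% FBS). Time-zero signal separates growth inhibition from cell kill; 0.3% DMSO wells without compound define maximal growth.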

BTK T316A = BTK T316A (Homo sapiens (Human), UniProt Q06187, T316A); test: Binding kinetics measurements (Surface Plasmon Resonance) on BTK T316A; details: for pKd: binding affinity by Surface Plasmon Resonance (SPR); for Tau (h) BTK T316A (Act): target residence time, SPR
Chain of BTK T316A (Q06187 whole entry T316A): as the sequence (Q06187 whole entry) above, with T316A counted along it
Experimental: (§2) Binding kinetics measurements on wt-BTK, BTK […], BTK […], BTK […] and BTK […] (Surface Plasmon Resonance) Streptavidin-coated chips (Cat. No. BR100531), disposables and maintenance kits for Biacore were purchased from Cytiva (Eindhoven, The Netherlands). […] Remaining streptavidin was blocked with biocytin. Immobilization was performed at 4° C. Subsequent assay steps were conducted at 22° C. After changing buffer to Biacore buffer with 1% (v/v) dimethylsulfoxide (DMSO), a pre-run was performed for a period of at least 30 min at a flow rate of 30 μl/min to obtain a stable surface. The kinetic constants of the compounds were determined with single cycle kinetics with five consecutive injections with an increasing compound concentration with ranges of 3.16-316 nM. […] To circumvent problems of mass transport limitation, a flow rate of 30 μl/min was used. A blank run with the same conditions was performed before the compound was injected. The SPR sensorgrams were analyzed with Biacore Evaluation Software by using a method of double referencing. First the reference channel was subtracted from the channel containing immobilized protein. Subsequently, the reference curve obtained with buffer injections was subtracted. […] Compounds that bound according to an induced fit model were fitted with a two-state reaction model. The kinetic constants (ka, […], KD) of duplicates were geometrically averaged. […] Target residence for an induced fit model was calculated as described (Tummino and Copeland, 2008).

BTK C481S = BTK C481S (Homo sapiens (Human), UniProt Q06187, C481S); test: Binding kinetics measurements (Surface Plasmon Resonance) on BTK C481S; details: for pKd: binding affinity by Surface Plasmon Resonance (SPR); for Tau (h) BTK C418S (Act): target residence time for BTK C481S, SPR
Chain of BTK C481S (Q06187 whole entry C481S): as the sequence (Q06187 whole entry) above, with C481S counted along it
Experimental: as §2

[2] = biological target: full-length wt-BTK enzyme (Homo sapiens (Human), UniProt Q06187); test: Biochemical kinase assay wt-BTK (IMAP)
Chain of full-length wt-BTK enzyme (Q06187 whole entry): as the sequence (Q06187 whole entry) above
Summary of the method: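 Compound and enzyme (final 1.2 nM) were pre-incubated for 1 h at RT, after which the reaction was started with 4 μM ATP plus 50 nM fluorescein-MBP substrate peptide. After 2 h in the dark, the IMAP progressive binding reagent stopped the reaction, and phosphorylation was read by fluorescence polarization.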

[3] = biological target: full-length BTK C481S enzyme (Homo sapiens (Human), UniProt Q06187, C481S); test: Biochemical kinase assay BTK C481S (IMAP)
Chain of full-length BTK C481S enzyme (Q06187 whole entry C481S): as the sequence (Q06187 whole entry) above, with C481S counted along it
Summary of the method: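 IC50 values come from IMAP fluorescence polarization after quenching with progressive binding solution. The reaction ran 2 h at room temperature in the dark with 1.2 nM full-length C481S enzyme, 7 μM ATP and 50 nM fluorescein-labelled MBP-derived peptide, following a 1 h dark pre-incubation of compound with enzyme.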

[4] = system: wt-REC-1 mantle cell lymphoma cells; test: Cell proliferation assay wt-REC-1 (ATPlite, 72 hours); type: cell-based; details: 72 h; read-out: IC50 wt-REC-1
Summary of the method: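 Luminescent viability read over 72 h, start-of-incubation signal recorded separately to separate growth from cell death. Percentage growth referenced to compound-free 0.3% DMSO wells; IC50 from 4-parameter logistic fit.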

BTK T474S = BTK T474S (Homo sapiens (Human), UniProt Q06187, T474S); test: Binding kinetics measurements (Surface Plasmon Resonance) on BTK T474S; details: for residence time: SPR binding kinetics, BTK T474S, read-out: Tau (h) BTK T474S (Act), target residence time (converted); for pKd: binding affinity by Surface Plasmon Resonance (SPR)
Chain of BTK T474S (Q06187 whole entry T474S): as the sequence (Q06187 whole entry) above, with T474S counted along it
Experimental: as §2

Row | SMILES | pIC50 (REC-1 T474I cell lines) | pKd (wt-BTK) | Tau (h) wt-BTK (Act) (wt-BTK) [h] | pKd (BTK T474I) | Tau (h) BTK T474I (Act) (BTK T474I) [h] | pIC50 [1] | pKd (BTK T316A) | Tau (h) BTK T316A (Act) (BTK T316A) [h] | pKd (BTK C481S) | Tau (h) BTK C418S (Act) (BTK C481S) [h] | pIC50 [2] | pIC50 [3] | pIC50 [4] | residence time (BTK T474S) [h] | pKd (BTK T474S)
1 | Nc1ncc2c3c1c(-c1ccc(C(=O)Nc4cc(C(F)(F)F)ccn4)cc1)nn3[C@@H]1CCC[C@H](C1)C(=O)NCCCC/C=C/2 [Example 1] | > 7.00 | > 8.30 | 8.77 | > 8.70 | 0.92 | > 7.00 | > 8.30 | 2.99 | > 8.30 | 1.24 | > 8.30 | > 8.30 | > 7.00 |  | 
2 | Nc1ncc2c3c1c(-c1ccc(C(=O)Nc4cc(C(F)(F)F)ccn4)cc1)nn3[C@@H]1CCC[C@H](C1)C(=O)NCCCCC/C=C/2 [Example 2] | > 7.00 | > 8.30 | 4.47 | > 8.70 | 3.61 | > 7.00 | > 8.30 | 16.05 |  |  | > 8.30 | > 8.30 | > 7.00 |  | 
3 | COc1ccc(F)cc1C(=O)NCc1ccc(-c2nn3c4c(cnc(N)c24)/C=C/COCC(=O)N[C@@H]2CCC[C@@H]3C2)cc1 [Example 52] | 5.00 to 6.30 | > 8.30 |  | 7.30 to 8.00 and > 8.30 |  | > 7.00 |  |  |  |  | > 8.30 | > 8.30 | 6.00 to 7.00 | 1.35 | > 8.52
4 | Nc1ncc2c3c1c(-c1ccc(C(=O)Nc4cc(C(F)(F)F)ccn4)cc1)nn3[C@@H]1CCC[C@H](C1)C(=O)NCCCCC/C=C\C2 [Example 89b] |  |  |  | 7.30 to 8.00 and > 8.30 | 0.64 |  | > 8.30 | 3.12 | > 8.30 | 6.69 | > 8.30 | > 8.30 | > 7.00 |  | 
5 | N#Cc1ccnc(NC(=O)c2ccc(-c3nn4c5c(cnc(N)c35)/C=C/CCN3CC[C@H]3C(=O)N[C@@H]3CCC[C@@H]4C3)cc2)c1 [Example 165] | > 7.00 |  | 3.24 |  |  | > 7.00 |  | 6.98 |  | 1.61 | > 8.30 | > 8.30 | > 7.00 |  | 
6 | Nc1ncc2c3c1c(-c1ccc(C(=O)Nc4cc(C(F)(F)F)ccn4)cc1)nn3[C@@H]1CC[C@H](C1)NC(=O)[C@@H]1CCN1CC/C=C/2 [Example 174] | > 7.00 |  | 1.35 |  | 0.77 | > 7.00 |  | 4.98 | > 8.30 | 3.56 | > 8.30 | > 8.30 | > 7.00 |  | 
7 | C[C@@H]1CC(=O)N[C@@H]2CCC[C@H](C2)c2nc(-c3ccc(C(=O)Nc4cc(C(F)(F)F)ccn4)cc3)c3c(N)ncc(n23)/C=C/CCN1 [Example 179] | 6.30 to 7.00 |  | 7.36 | > 8.70 | 1.14 | > 7.00 |  |  | > 8.30 | 4.06 | > 8.30 | > 8.30 | > 7.00 | 3.01 | 
8 | C[C@@H]1CC(=O)N[C@@H]2CCC[C@H](C2)n2nc(-c3ccc(C(=O)Nc4cc(C#N)ccn4)cc3)c3c(N)ncc(c32)/C=C/CCN1 [Example 180] | 6.30 to 7.00 |  | 7.42 | > 8.70 | 1.16 | > 7.00 |  |  |  |  | > 8.30 | > 8.30 | > 7.00 | 7.27 | 
9 | C[C@@H]1CC(=O)N[C@@H]2CC[C@H](C2)n2nc(-c3ccc(C(=O)Nc4cc(C#N)ccn4)cc3)c3c(N)ncc(c32)/C=C/CCN1 [Example 181] | 5.00 to 6.30 |  | 2.95 |  |  | > 7.00 |  |  |  |  | > 8.30 | > 8.30 | > 7.00 | 5.65 | 
10 | N#Cc1ccnc(NC(=O)c2ccc(-c3nn4c5c(cnc(N)c35)/C=C/CCCCCC(=O)N[C@@H]3CC[C@@H]4C3)cc2)c1 [Example 182] | > 7.00 |  | 2.96 |  | 1.07 | > 7.00 |  |  |  |  | > 8.30 | > 8.30 | > 7.00 | 1.03 | 
11 | N#Cc1ccnc(NC(=O)c2ccc(-c3nn4c5c(cnc(N)c35)/C=C/COCCC(=O)N[C@@H]3CC[C@@H]4C3)cc2)c1 [Example 183] | > 7.00 |  | >24 |  | >24 | > 7.00 |  |  | > 8.30 | 4.15 | > 8.30 | > 8.30 | > 7.00 | > 24 | > 8.30
12 | COc1ccc(F)cc1C(=O)NCc1ccc(-c2nn3c4c(cnc(N)c24)/C=C/CCCCCC(=O)N[C@@H]2CCC[C@@H]3C2)cc1 [Example 187] | 6.30 to 7.00 |  | 18.83 |  | 2.13 | > 7.00 |  |  |  |  | > 8.30 | > 8.30 | > 7.00 | 13.6 | > 8.30
